Reference: patent publication US20230278972A1, “SUBSTITUTED HALOALKYL SULFONANILIDE HERBICIDES” (FMC Corporation, priority 2020, published 2023)

Columns and labels:
Type in all cases: in vivo
[1] = system: barnyardgrass (Echinochloa crus-galli); experiment: Test A preemergence, barnyardgrass; details: Preemergence; for Barnyardgrass plant response rating: 125 g ai/ha, visual injury on 0 to 100 scale (0 no effect, 100 complete control), approximately 10 days; for Plant response rating, Barnyardgrass: 500 g ai/ha, 0 to 100 scale (0 no effect, 100 complete control)
Procedure, shortened: (§1)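 After sowing into a sand-amended loam, pots for the preemergence test were treated by spraying directly onto soil. In parallel, seedlings at the one- to two-leaf stage and 2 to 10 cm tall were treated postemergence with the identical surfactant-containing formulation.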

[2] = system: blackgrass (Alopecurus myosuroides); experiment: Test A postemergence, blackgrass; details: Postemergence, 0 to 100 scale (0 no effect, 100 complete control); for Plant response rating, Blackgrass: 125 g ai/ha, visual injury approx. 10 days; for Blackgrass plant response rating: 500 g ai/ha, visual injury vs untreated controls after approx. 10 days
Procedure, shortened: as §1

[3] = system: ragweed (common ragweed, Ambrosia artemisiifolia); experiment: Test A postemergence, ragweed; details: Postemergence, 0 to 100 scale (0 no effect, 100 complete control); for Plant response rating, Ragweed: 125 g ai/ha, visual injury approx. 10 days; for Ragweed plant response rating: 500 g ai/ha, visual injury vs untreated controls after approx. 10 days
Procedure, shortened: as §1

[4] = system: wheat (Triticum aestivum); experiment: Test A postemergence, wheat; details: Postemergence, 0 to 100 scale (0 no effect, 100 complete control); for Plant response rating, Wheat: 125 g ai/ha, visual injury approx. 10 days; for Wheat plant response rating: 500 g ai/ha, visual injury vs untreated controls after approx. 10 days
Procedure, shortened: (§2)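 Test chemicals, formulated in a non-phytotoxic solvent mixture with surfactant, were sprayed postemergence on plants 2 to 10 cm tall at the one- to two-leaf stage. Preemergence treatment was a directed soil spray onto freshly seeded pots. Both used a loam soil and sand blend.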

[5] = system: Ryegrass, Italian (Italian ryegrass, Lolium multiflorum); experiment: Test A postemergence, Ryegrass, Italian; details: Postemergence, 0 to 100 scale (0 no effect, 100 complete control); for Plant response rating, Ryegrass, Italian: 125 g ai/ha, visual injury approx. 10 days; for Ryegrass, Italian plant response rating: 500 g ai/ha, visual injury vs untreated controls after approx. 10 days
Procedure, shortened: as §1

[6] = system: galium (catchweed bedstraw, Galium aparine); experiment: Test A postemergence, galium; details: Postemergence, 0 to 100 scale (0 no effect, 100 complete control); for Plant response rating, Galium: 125 g ai/ha, visual injury approx. 10 days; for Galium plant response rating: 500 g ai/ha, visual injury vs untreated controls after approx. 10 days
Procedure, shortened: as §2

[7] = system: Foxtail, Giant (giant foxtail, Setaria faberi); experiment: Test A postemergence, Foxtail, Giant; details: Postemergence, 0 to 100 scale (0 no effect, 100 complete control); for Plant response rating, Foxtail, Giant: 125 g ai/ha, visual injury approx. 10 days; for Foxtail, Giant plant response rating: 500 g ai/ha, visual injury vs untreated controls after approx. 10 days
Procedure, shortened: as §1

[8] = system: Ryegrass, Italian (Italian ryegrass, Lolium multiflorum); experiment: Test A preemergence, Ryegrass, Italian; details: Preemergence; for Ryegrass, Italian plant response rating: 125 g ai/ha, visual injury on 0 to 100 scale (0 no effect, 100 complete control), approximately 10 days; for Plant response rating, Ryegrass, Italian: 500 g ai/ha, 0 to 100 scale (0 no effect, 100 complete control)
Procedure, shortened: as §1

[9] = system: pigweed (Amaranthus retroflexus); experiment: Test A postemergence, pigweed; details: Postemergence, 0 to 100 scale (0 no effect, 100 complete control); for Plant response rating, Pigweed: 125 g ai/ha, visual injury approx. 10 days; for Pigweed plant response rating: 500 g ai/ha, visual injury vs untreated controls after approx. 10 days
Procedure, shortened: as §1

[10] = system: barnyardgrass (Echinochloa crus-galli); experiment: Test A postemergence, barnyardgrass; details: Postemergence, 0 to 100 scale (0 no effect, 100 complete control); for Plant response rating, Barnyardgrass: 125 g ai/ha, visual injury approx. 10 days; for Barnyardgrass plant response rating: 500 g ai/ha, visual injury vs untreated controls after approx. 10 days
Procedure, shortened: as §2

[11] = system: kochia (Bassia scoparia); experiment: Test A postemergence, kochia; details: Postemergence, 0 to 100 scale (0 no effect, 100 complete control); for Plant response rating, Kochia: 125 g ai/ha, visual injury approx. 10 days; for Kochia plant response rating: 500 g ai/ha, visual injury vs untreated controls after approx. 10 days
Procedure, shortened: as §1

[12] = system: corn (Zea mays); experiment: Test A postemergence, corn; details: Postemergence, 0 to 100 scale (0 no effect, 100 complete control); for Plant response rating, Corn: 125 g ai/ha, visual injury approx. 10 days; for Corn plant response rating: 500 g ai/ha, visual injury vs untreated controls after approx. 10 days
Procedure, shortened: as §1

[13] = system: ragweed (common ragweed, Ambrosia artemisiifolia); experiment: Test A preemergence, ragweed; details: Preemergence; for Ragweed plant response rating: 125 g ai/ha, visual injury on 0 to 100 scale (0 no effect, 100 complete control), approximately 10 days; for Plant response rating, Ragweed: 500 g ai/ha, 0 to 100 scale (0 no effect, 100 complete control)
Procedure, shortened: as §1

[14] = system: Foxtail, Giant (giant foxtail, Setaria faberi); experiment: Test A preemergence, Foxtail, Giant; details: Preemergence; for Foxtail, Giant plant response rating: 125 g ai/ha, visual injury on 0 to 100 scale (0 no effect, 100 complete control), approximately 10 days; for Plant response rating, Foxtail, Giant: 500 g ai/ha, 0 to 100 scale (0 no effect, 100 complete control)
Procedure, shortened: as §1

[15] = system: pigweed (Amaranthus retroflexus); experiment: Test A preemergence, pigweed; details: for Pigweed plant response rating: 125 g ai/ha, visual injury on 0 to 100 scale (0 no effect, 100 complete control), approximately 10 days; for Plant response rating, Pigweed: 500 g ai/ha, 0 to 100 scale (0 no effect, 100 complete control)
Procedure, shortened: as §2

[16] = system: kochia (Bassia scoparia); experiment: Test A preemergence, kochia; details: Preemergence; for Kochia plant response rating: 125 g ai/ha, visual injury on 0 to 100 scale (0 no effect, 100 complete control), approximately 10 days; for Plant response rating, Kochia: 500 g ai/ha, 0 to 100 scale (0 no effect, 100 complete control)
Procedure, shortened: as §1

Structure (SMILES) | Barnyardgrass plant response rating [1] | Plant response rating, Barnyardgrass [1] | Plant response rating, Blackgrass [2] | Blackgrass plant response rating [2] | Plant response rating, Ragweed [3] | Ragweed plant response rating [3] | Plant response rating, Wheat [4] | Wheat plant response rating [4] | Plant response rating, Ryegrass, Italian [5] | Ryegrass, Italian plant response rating [5] | Plant response rating, Galium [6] | Galium plant response rating [6] | Plant response rating, Foxtail, Giant [7] | Foxtail, Giant plant response rating [7] | Ryegrass, Italian plant response rating [8] | Plant response rating, Ryegrass, Italian [8] | Plant response rating, Pigweed [9] | Pigweed plant response rating [9] | Plant response rating, Barnyardgrass [10] | Barnyardgrass plant response rating [10] | other results
COc1ccnn(-c2cc(NS(=O)(=O)C(F)(F)F)c(C)cc2C)c1=O [Compound 60] | 90 | 90 | 40 | 70 | 50 | 70 | 50 | 70 | 70 | 80 | 90 | 90 | 60 | 90 | 80 | 90 | 80 | 90 | 70 | 70 | Plant response rating, Kochia [11]: 40; Kochia plant response rating [11]: 80; Plant response rating, Corn [12]: 10; Corn plant response rating [12]: 60; Ragweed plant response rating [13]: 30; Plant response rating, Ragweed [13]: 70; Foxtail, Giant plant response rating [14]: 80; Plant response rating, Foxtail, Giant [14]: 90; Pigweed plant response rating [15]: 100; Plant response rating, Pigweed [15]: 100; Kochia plant response rating [16]: 90; Plant response rating, Kochia [16]: 90
Cc1cc(C)c(N(S(=O)(=O)C(F)(F)F)S(=O)(=O)C(F)(F)F)cc1-c1cc(C(F)(F)F)nn(C)c1=O [Compound 61] | 100 | 100 | 0 | 30 | 0 | 30 | 40 | 70 | 40 | 80 | 50 | 60 | 0 | 70 | 70 | 100 | 20 | 80 | 20 | 80 | Plant response rating, Kochia [11]: 40; Kochia plant response rating [11]: 60; Plant response rating, Corn [12]: 20; Corn plant response rating [12]: 10; Ragweed plant response rating [13]: 0; Plant response rating, Ragweed [13]: 0; Foxtail, Giant plant response rating [14]: 100; Plant response rating, Foxtail, Giant [14]: 100; Pigweed plant response rating [15]: 50; Plant response rating, Pigweed [15]: 80; Kochia plant response rating [16]: 50; Plant response rating, Kochia [16]: 90
Cc1cc(-c2cc(NS(=O)(=O)C(F)(F)F)c(C)cc2C)c(=O)n(C)n1 [Compound 62] | 100 | 100 | 0 | 50 | 0 | 20 | 0 | 60 | 0 | 20 | 70 | 80 | 0 | 80 | 40 | 100 | 20 | 40 | 0 | 70 | Plant response rating, Kochia [11]: 20; Kochia plant response rating [11]: 40; Plant response rating, Corn [12]: 0; Corn plant response rating [12]: 0; Ragweed plant response rating [13]: 20; Plant response rating, Ragweed [13]: 80; Foxtail, Giant plant response rating [14]: 100; Plant response rating, Foxtail, Giant [14]: 100; Pigweed plant response rating [15]: 50; Plant response rating, Pigweed [15]: 90; Kochia plant response rating [16]: 70; Plant response rating, Kochia [16]: 90
Cc1cc(F)c(-c2ccnn(C)c2=O)cc1NS(=O)(=O)C(F)(F)F [Compound 63] | 70 | 90 | 0 | 40 | 10 | 60 | 0 | 80 | 30 | 70 | 90 | 90 | 70 | 90 | 90 | 100 | 30 | 80 | 10 | 90 | Plant response rating, Kochia [11]: 70; Kochia plant response rating [11]: 90; Plant response rating, Corn [12]: 0; Corn plant response rating [12]: 50; Ragweed plant response rating [13]: 30; Plant response rating, Ragweed [13]: 80; Foxtail, Giant plant response rating [14]: 90; Plant response rating, Foxtail, Giant [14]: 100; Pigweed plant response rating [15]: 70; Plant response rating, Pigweed [15]: 90; Kochia plant response rating [16]: 40; Plant response rating, Kochia [16]: 90
COc1c(Cl)nn(C)c(=O)c1-c1cc(NS(=O)(=O)C(F)(F)F)c(C)cc1C [Compound 64] | 50 | 90 | 0 | 30 | 0 | 0 | 40 | 60 | 40 | 80 | 0 | 30 | 0 | 60 | 70 | 100 | 20 | 30 | 20 | 20 | Plant response rating, Kochia [11]: 20; Kochia plant response rating [11]: 60; Plant response rating, Corn [12]: 0; Corn plant response rating [12]: 0; Ragweed plant response rating [13]: 0; Plant response rating, Ragweed [13]: 40; Foxtail, Giant plant response rating [14]: 90; Plant response rating, Foxtail, Giant [14]: 90; Pigweed plant response rating [15]: 40; Plant response rating, Pigweed [15]: 50; Kochia plant response rating [16]: 40; Plant response rating, Kochia [16]: 90
COc1cnn(C)c(=O)c1-c1cc(NS(=O)(=O)C(F)(F)F)c(C)cc1C [Compound 65] | 0 | 90 | 0 | 0 | 0 | 0 | 0 | 50 | 0 | 0 | 0 | 30 | 0 | 40 | 30 | 60 | 0 | 0 | 0 | 70 | Plant response rating, Kochia [11]: 0; Kochia plant response rating [11]: 0; Plant response rating, Corn [12]: 0; Corn plant response rating [12]: 0; Ragweed plant response rating [13]: 0; Plant response rating, Ragweed [13]: 0; Foxtail, Giant plant response rating [14]: 80; Plant response rating, Foxtail, Giant [14]: 100; Pigweed plant response rating [15]: 0; Plant response rating, Pigweed [15]: 30; Kochia plant response rating [16]: 0; Plant response rating, Kochia [16]: 60
Cc1ccc(-c2ccnn(C)c2=O)cc1N(S(=O)(=O)C(F)(F)F)S(=O)(=O)C(F)(F)F [Compound 66] | 0 | 90 | 0 | 0 | 0 | 0 | 0 | 40 | 0 | 0 | 50 | 70 | 0 | 30 | 0 | 0 | 0 | 50 | 0 | 30 | Plant response rating, Kochia [11]: 0; Kochia plant response rating [11]: 10; Plant response rating, Corn [12]: 0; Corn plant response rating [12]: 10; Ragweed plant response rating [13]: 0; Plant response rating, Ragweed [13]: 10; Foxtail, Giant plant response rating [14]: 0; Plant response rating, Foxtail, Giant [14]: 60; Pigweed plant response rating [15]: 0; Plant response rating, Pigweed [15]: 30; Kochia plant response rating [16]: 0; Plant response rating, Kochia [16]: 40
